Experimental data as given in article PMC5564600 (Oncotarget, 2017).
Where “and” joins values, the source holds several entries; their conditions need not be identical. Equal values may be shown once.

How the values were obtained:
Test in all cases: biochemical
Format in all cases: binding
[1] = biological target: T1, panel of 442 kinases (Homo sapiens, UniProt O75914); conditions: kinase PAK3; for remaining activity at 1 µM: read-out: % of control at 1 µM
T1 construct: purchased Ambit Biosciences (scanMAXX KINOMEscan)

[2] = biological target: T2, panel of 442 kinases (Homo sapiens, UniProt P0C264); conditions: kinase SgK110; for remaining activity at 1 µM: read-out: SgK110 (% of control at 1 µM)
T2 construct: purchased Ambit Biosciences (scanMAXX KINOMEscan)
T2 sequence (P0C264 1-359): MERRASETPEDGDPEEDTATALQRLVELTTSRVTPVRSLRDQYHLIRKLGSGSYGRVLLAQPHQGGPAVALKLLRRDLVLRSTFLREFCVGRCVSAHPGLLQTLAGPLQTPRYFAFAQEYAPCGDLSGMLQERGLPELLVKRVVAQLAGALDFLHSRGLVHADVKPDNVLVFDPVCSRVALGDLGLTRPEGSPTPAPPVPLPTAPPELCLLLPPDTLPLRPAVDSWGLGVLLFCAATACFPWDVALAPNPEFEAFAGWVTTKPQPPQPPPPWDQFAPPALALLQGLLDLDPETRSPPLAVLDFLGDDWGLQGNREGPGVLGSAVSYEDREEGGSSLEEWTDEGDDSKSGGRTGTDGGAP

[3] = biological target: T3, panel of 442 kinases (Homo sapiens, UniProt Q04912); conditions: kinase MST1R; for remaining activity at 1 µM: read-out: % of control at 1 µM
T3 construct: purchased Ambit Biosciences (scanMAXX KINOMEscan)

[4] = biological target: T4, panel of 442 kinases (Homo sapiens, UniProt Q13164); conditions: ERK5; for remaining activity at 1 µM: read-out: % of control at 1 µM
T4 construct: purchased Ambit Biosciences (scanMAXX KINOMEscan)

[5] = biological target: T5, panel of 442 kinases (Homo sapiens, UniProt Q59H18); conditions: kinase TNNI3K; for remaining activity at 1 µM: read-out: TNNI3K (% of control at 1 µM)
T5 construct: purchased Ambit Biosciences (scanMAXX KINOMEscan)
T5 sequence (Q59H18 1-835): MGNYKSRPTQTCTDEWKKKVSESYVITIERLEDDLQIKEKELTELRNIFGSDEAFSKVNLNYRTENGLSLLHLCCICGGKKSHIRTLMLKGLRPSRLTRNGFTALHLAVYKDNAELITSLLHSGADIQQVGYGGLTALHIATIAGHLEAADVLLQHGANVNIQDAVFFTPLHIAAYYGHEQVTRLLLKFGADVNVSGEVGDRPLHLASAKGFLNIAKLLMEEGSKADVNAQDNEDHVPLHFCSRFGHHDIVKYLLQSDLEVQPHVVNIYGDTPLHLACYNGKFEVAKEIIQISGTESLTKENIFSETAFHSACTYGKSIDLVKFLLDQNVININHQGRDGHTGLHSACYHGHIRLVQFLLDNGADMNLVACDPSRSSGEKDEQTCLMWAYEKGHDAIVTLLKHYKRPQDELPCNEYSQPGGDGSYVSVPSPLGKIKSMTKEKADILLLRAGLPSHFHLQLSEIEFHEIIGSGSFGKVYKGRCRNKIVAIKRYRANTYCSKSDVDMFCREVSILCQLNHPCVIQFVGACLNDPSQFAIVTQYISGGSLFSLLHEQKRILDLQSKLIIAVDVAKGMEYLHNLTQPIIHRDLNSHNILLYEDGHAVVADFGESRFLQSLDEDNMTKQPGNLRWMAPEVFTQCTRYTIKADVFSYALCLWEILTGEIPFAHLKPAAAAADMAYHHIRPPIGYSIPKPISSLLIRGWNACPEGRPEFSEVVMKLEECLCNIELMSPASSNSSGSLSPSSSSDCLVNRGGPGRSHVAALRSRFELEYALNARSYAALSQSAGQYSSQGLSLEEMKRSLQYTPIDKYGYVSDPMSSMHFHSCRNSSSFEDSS

[6] = biological target: T6, panel of 442 kinases (Homo sapiens, UniProt Q9BWU1); conditions: CDK11; for remaining activity at 1 µM: read-out: % of control at 1 µM
T6 construct: purchased Ambit Biosciences (scanMAXX KINOMEscan)

[7] = tested on: panel of 442 kinases
[8] = biological target: T7, panel of 442 kinases (Homo sapiens, UniProt O00329); conditions: kinase PIK3CD; 1 µM; read-out: % of control at 1 µM
T7 construct: purchased Ambit Biosciences (scanMAXX KINOMEscan)
T7 sequence (O00329 1-1044): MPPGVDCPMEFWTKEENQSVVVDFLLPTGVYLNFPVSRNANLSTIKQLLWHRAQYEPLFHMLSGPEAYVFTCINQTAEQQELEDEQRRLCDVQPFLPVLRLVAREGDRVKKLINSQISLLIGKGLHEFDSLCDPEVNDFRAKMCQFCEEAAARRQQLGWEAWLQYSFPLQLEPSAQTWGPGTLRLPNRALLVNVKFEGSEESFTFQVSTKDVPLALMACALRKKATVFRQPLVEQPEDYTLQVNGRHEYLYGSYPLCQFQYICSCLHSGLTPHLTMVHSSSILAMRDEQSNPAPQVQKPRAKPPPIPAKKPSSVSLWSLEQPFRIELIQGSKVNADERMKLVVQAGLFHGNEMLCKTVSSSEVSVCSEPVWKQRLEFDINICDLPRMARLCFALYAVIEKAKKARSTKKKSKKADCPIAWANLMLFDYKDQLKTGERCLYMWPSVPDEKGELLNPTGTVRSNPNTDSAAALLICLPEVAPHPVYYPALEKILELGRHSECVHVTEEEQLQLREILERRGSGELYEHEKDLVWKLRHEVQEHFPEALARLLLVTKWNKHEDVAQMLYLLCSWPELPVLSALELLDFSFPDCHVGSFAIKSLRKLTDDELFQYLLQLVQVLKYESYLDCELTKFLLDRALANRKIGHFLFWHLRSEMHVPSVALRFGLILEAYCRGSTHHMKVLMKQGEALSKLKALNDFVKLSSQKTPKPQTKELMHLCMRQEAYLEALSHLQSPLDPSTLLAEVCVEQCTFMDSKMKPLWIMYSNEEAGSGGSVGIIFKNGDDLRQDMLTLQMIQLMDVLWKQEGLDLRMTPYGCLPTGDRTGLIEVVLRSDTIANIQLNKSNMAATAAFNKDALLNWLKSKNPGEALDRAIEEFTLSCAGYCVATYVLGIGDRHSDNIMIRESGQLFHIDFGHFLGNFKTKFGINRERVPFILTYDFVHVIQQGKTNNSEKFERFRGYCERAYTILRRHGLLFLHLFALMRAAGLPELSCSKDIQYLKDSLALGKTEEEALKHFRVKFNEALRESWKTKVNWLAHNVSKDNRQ

[9] = 10 µM, read-out: % of control at 10 µM
[10] = EGFR(L747-E749del, A750P), 1 µM
[11] = EGFR(L747-S752del, P753S), 1 µM
[12] = kinase KIT(D816V), first of two lines so named (r206), 1 µM

T4 sequence (Q13164 whole entry): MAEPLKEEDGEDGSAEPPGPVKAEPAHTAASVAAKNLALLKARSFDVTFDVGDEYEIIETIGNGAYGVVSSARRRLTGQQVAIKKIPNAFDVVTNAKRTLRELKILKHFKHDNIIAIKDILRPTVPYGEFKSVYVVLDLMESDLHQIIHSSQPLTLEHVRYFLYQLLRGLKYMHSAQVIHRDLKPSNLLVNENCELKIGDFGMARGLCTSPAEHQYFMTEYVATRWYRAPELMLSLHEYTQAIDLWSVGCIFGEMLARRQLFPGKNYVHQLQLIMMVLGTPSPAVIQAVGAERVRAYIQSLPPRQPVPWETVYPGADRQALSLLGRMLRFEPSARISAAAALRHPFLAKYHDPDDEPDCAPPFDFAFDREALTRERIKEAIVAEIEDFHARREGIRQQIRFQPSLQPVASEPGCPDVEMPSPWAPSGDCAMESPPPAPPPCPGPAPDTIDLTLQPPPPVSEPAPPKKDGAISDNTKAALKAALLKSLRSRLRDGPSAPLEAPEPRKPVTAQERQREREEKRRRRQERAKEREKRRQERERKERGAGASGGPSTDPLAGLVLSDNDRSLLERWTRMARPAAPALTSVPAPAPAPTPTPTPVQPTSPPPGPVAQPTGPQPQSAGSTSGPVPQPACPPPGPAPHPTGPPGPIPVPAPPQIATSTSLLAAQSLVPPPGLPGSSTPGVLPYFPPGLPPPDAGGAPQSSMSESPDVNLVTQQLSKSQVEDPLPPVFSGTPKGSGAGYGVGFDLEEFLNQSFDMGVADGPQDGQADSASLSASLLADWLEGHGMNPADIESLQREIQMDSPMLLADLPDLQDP
T6 sequence (Q9BWU1 whole entry): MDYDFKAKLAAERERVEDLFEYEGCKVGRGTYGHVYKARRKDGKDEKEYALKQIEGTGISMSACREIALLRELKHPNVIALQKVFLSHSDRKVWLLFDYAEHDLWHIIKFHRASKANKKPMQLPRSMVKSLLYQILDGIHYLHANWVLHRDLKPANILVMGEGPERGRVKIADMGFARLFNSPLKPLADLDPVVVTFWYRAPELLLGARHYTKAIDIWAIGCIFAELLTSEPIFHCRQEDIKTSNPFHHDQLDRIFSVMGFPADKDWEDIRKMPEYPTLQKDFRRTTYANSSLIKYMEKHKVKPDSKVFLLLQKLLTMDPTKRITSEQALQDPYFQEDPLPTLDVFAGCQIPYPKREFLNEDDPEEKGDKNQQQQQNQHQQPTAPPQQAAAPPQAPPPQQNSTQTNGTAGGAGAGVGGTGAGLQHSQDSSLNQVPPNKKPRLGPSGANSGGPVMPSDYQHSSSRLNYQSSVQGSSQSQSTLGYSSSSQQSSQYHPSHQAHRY
T1 sequence (O75914 whole entry): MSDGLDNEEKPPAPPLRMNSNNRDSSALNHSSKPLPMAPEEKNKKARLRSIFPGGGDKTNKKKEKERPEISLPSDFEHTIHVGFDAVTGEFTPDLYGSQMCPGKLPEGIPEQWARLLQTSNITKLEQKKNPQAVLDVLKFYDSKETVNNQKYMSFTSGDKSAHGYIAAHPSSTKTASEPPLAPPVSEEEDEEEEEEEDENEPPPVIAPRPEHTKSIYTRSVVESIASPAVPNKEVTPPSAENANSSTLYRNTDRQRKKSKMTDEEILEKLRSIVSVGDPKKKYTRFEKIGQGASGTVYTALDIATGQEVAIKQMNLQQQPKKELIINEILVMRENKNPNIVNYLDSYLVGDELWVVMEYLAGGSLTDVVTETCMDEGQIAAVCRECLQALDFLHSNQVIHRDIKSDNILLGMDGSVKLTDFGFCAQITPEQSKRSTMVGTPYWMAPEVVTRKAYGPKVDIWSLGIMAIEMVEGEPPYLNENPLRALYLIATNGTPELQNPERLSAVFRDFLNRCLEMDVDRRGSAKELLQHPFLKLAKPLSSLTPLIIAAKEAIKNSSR
T3 sequence (Q04912 25-1400): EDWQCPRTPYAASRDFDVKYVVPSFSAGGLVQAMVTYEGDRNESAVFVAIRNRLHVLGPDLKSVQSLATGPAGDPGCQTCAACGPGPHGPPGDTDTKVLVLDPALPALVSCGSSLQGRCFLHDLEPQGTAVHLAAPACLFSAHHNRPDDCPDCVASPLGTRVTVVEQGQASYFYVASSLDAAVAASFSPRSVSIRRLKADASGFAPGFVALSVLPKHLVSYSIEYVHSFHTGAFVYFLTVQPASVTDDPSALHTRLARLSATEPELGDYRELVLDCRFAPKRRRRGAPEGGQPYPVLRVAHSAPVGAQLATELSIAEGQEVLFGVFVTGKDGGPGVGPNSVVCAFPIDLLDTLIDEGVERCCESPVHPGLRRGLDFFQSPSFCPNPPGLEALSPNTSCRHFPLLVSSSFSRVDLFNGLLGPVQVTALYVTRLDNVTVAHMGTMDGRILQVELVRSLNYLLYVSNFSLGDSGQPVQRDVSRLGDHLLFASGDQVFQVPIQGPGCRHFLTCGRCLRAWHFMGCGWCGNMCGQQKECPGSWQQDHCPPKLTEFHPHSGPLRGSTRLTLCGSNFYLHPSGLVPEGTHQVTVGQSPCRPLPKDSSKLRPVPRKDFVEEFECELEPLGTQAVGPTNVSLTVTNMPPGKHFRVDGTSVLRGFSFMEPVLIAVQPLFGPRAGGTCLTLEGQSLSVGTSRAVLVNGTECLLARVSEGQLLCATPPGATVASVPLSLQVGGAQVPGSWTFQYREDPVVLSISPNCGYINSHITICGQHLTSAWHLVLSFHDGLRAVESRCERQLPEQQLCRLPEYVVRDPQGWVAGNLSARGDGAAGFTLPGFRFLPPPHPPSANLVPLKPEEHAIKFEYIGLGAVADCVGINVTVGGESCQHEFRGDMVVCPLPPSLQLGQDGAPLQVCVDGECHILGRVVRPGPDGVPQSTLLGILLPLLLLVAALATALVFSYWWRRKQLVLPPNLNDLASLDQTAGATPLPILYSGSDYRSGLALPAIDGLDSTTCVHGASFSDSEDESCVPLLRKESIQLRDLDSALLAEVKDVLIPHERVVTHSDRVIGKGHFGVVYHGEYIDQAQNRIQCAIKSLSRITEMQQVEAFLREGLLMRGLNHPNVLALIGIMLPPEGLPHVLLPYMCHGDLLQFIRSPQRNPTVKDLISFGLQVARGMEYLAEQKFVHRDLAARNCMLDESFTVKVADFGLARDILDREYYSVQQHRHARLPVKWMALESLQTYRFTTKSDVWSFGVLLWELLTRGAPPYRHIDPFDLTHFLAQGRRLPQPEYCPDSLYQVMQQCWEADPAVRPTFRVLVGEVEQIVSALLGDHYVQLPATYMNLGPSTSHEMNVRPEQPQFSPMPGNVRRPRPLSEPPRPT

SMILES	remaining activity at 1 µM [1] [%]	remaining activity at 10 µM [1, 9] [%]	remaining activity at 1 µM [2] [%]	remaining activity at 10 µM ([2]; 10 µM, read-out: SgK110 (% of control at 10 µM)) [%]	remaining activity at 1 µM [3] [%]	remaining activity at 10 µM [3, 9] [%]	remaining activity at 1 µM [4] [%]	remaining activity at 10 µM [4, 9] [%]	remaining activity at 1 µM [5] [%]	remaining activity at 10 µM ([5]; 10 µM, read-out: TNNI3K (% of control at 10 µM)) [%]	remaining activity at 1 µM [6] [%]	remaining activity at 10 µM [6, 9] [%]	% of control at 1 µM ([7]; 1 μM)	% of control at 10 µM ([7]; 10 μM)	remaining activity at 1 µM [8] [%]	% of control at 1 µM ([7]; FLT3(ITD), 1 µM)	% of control at 1 µM [7, 10]	% of control at 1 µM [7, 11]	% of control at 1 µM ([7]; EGFR(L747-T751del,Sins), 1 µM)	% of control at 1 µM [7, 12]
Nc1cc(C(F)(F)F)c(-c2cc(N3CCOCC3)nc(N3CCOCC3)n2)cn1 [Buparlisib]	89	100	91	100	74	100	84	100	100	100	100	98	85 % of control and 100 % of control and 91 % of control and 86 % of control	96 % of control and 100 % of control and 93 % of control and 88 % of control	–	–	–	–	–	–
Cn1c(=O)n(-c2ccc(C(C)(C)C#N)cc2)c2c3cc(-c4cnc5ccccc5c4)ccc3ncc21 [Dactolisib, 2-methyl-2-[4-(3-methyl-2-oxo-8-quinolin-3-yl-2,3-dihydroimidazo[4,5-c]quinolin-1-yl)-phenyl] propionitrile]	86	–	100	–	60	–	–	–	76	–	88	–	81 % of control and 100 % of control and 86 % of control and 59 % of control	–	12	44 % of control	–	–	–	–
COc1ncc(-c2ccc3nccc(-c4ccnnc4)c3c2)cc1NS(=O)(=O)c1ccc(F)cc1F [Omipalisib]	100	–	100	–	95	–	87	–	100	–	64	–	–	–	0	100 % of control	92 % of control	87 % of control	100 % of control	100 % of control
CS(=O)(=O)N1CCN(Cc2cc3nc(-c4cccc5[nH]ncc45)nc(N4CCOCC4)c3s2)CC1 [Pictilisib, 2-(1H-indazol-4-yl)-6-(4-methanesulfonyl-piperazin-1-ylmethyl)-4-morpholin-4-yl-t hieno[3,2-d]pyrimidine]	–	–	–	–	–	–	–	–	–	–	–	–	98 % of control and 70 % of control and 99 % of control and 77 % of control and 72 % of control	–	–	–	–	–	–	–
FC(F)c1nc2ccccc2n1-c1nc(N2CCOCC2)nc(N2CCOCC2)n1 [ZSTK474, 2-(difluoromethyl)-1-[4,6-di(4-morpholinyl)-1,3,5-triazin-2-yl]-1H-benzimidazole]	73	–	100	–	92	–	97	–	95	–	88	–	–	–	0	99 % of control	89 % of control	100 % of control	100 % of control	100 % of control
